# Patent US3949090A, “Methods and compositions for improving feed efficiency in ruminants using dithiooxamide” (SmithKline Corporation, priority 1974, dated 1976)
# Tested on: Microbial Deaminase (strained rumen fluid)
# Test: In vitro effects upon amino acid deamination (rumen fluid, starch, urea; 5 hours)
# Assay type: cell-based
# Procedure: The in vitro fermentation system contained 50 ml. strained rumen fluid, 8 mM urea, 1 g. starch, 1.8 mM of each of 10 essential amino acids (threonine, valine, methionine, isoleucine, leucine, phenylalanine, tryptophan, lysine and arginine) and 0 to 100 ppm dithiooxamide. Flasks were incubated under a CO2 atmosphere for 5 hours with total amino acids assayed prior to and at the end of the fermentation by the method of Borchers [Anal. Chem., 31, (7):1179]. Percent apparent inhibition of deamination in treated flasks was calculated relative to control flasks without added dithiooxamide. Apparent inhibition of deamination in excess of 100% may be observed because of the liberation of amino acids from proteinaceous materials contained in rumen fluid.
# Inhibition of deamination (%) =
# Control deamination (%) - Treated deamination (%)
# Control deamination (%)
# ^1 In vitro fermentation system contained 50 ml. strained rumen fluid
# 1 g. starch, 8 mM urea and 1.8 mM of each of ten essential amino acids.
# Flasks were incubated under a CO2 atmosphere for five hours.
smiles,measurement,setting,value
"NC(=S)C(N)=S [Dithiooxamide, dithiooxamide]",inhibition at 2.5 ppm,"2.5 ppm dithiooxamide, 5 h, 1 replication, read-out: MDI (%)",0%
same,inhibition at 5 ppm,"5 ppm dithiooxamide, 5 h, 4 replications, read-out: MDI (%)",35%
same,inhibition at 7.5 ppm,"7.5 ppm dithiooxamide, 5 h, 1 replication, read-out: MDI (%)",71%
same,inhibition at 10 ppm,"10 ppm dithiooxamide, 5 h, 4 replications, read-out: MDI (%)",57%
same,inhibition at 25 ppm,"25 ppm dithiooxamide, 5 h, 4 replications, read-out: MDI (%)",62%
same,inhibition at 50 ppm,"50 ppm dithiooxamide, 5 h, 2 replications, read-out: MDI (%)",84%
same,inhibition at 75 ppm,"75 ppm dithiooxamide, 5 h, 1 replication, read-out: MDI (%)",100%
same,inhibition at 100 ppm,"100 ppm dithiooxamide, 5 h, 1 replication, read-out: MDI (%)",117%
same,inhibition of microbial deamination of amino acids (in words),"Table I, 7.5 to 100 ppm",effective inhibitor of microbial deamination of amino acids over a wide concentration range
